# Test results as given in ChEMBL document CHEMBL5608230, “Systematical Mutational Analysis of FRATtide against Osteoclast Differentiation by Alanine Scanning” (ACS Med Chem Lett, 2024).
# Active and inactive are the calls of the source. The rule behind the calls is not given here.
# How the values were obtained:
# BMMC [1] = assay: Cytotoxicity against C57BL/6J mouse BMMC upto 20 uM incubated for 4 days by CCK-8 assay; format: toxicity, cell-based; conditions: 96 h, time 4 day
# BMMC [2] = assay: Inhibition of osteoclast differentiation in M-CSF/RANKL induced C57BL/6J mouse BMMC at 10 uM medium changed every other day and measured after 7 days by TRAP staining based assay; format: functional, cell-based; conditions: time 7.0 day
# BMMC [3] = assay: Inhibition of bone resorption in RANKL induced C57BL/6J mouse BMMC at 5 to 10 uM by Cytation-5 staining based assay; format: functional, cell-based; conditions: dose 5-10 µM
# BMMC [4] = assay: Inhibition of F-actin ring formation in RANKL induced C57BL/6J mouse BMMC at 5 to 10 uM medium changed every other day by Hoechst 33342 and TRITC-labeled phalloidin staining based assay; format: functional, cell-based; conditions: dose 5-10 µM
Substance,Activity (BMMC [1]),other results
Ac-DPHRLAQQLVLSANLIKEAVARLHSR-NH2,Non-Toxic,–
Ac-DPHRLLQQLVLSGNLIKEAVRALHSR-NH2,Non-Toxic,–
Ac-DPHRLLQQLVASGNLIKEAVRRLHSR-NH2,Non-Toxic,–
Ac-DPHRLLQQLALSGNLIKEAVRRLHSR-NH2,Non-Toxic,–
Ac-DPHRLLQQLVLSGNLIKEAVRRLASR-NH2,Non-Toxic,–
Ac-DAHRLLQQLVLSGNLIKEAVRRLHSR-NH2,Non-Toxic,–
Ac-DPHRLLQQLVLSGALIKEAVRRLHSR-NH2,Non-Toxic,–
Ac-DPHRALQQLVLSGNLIKEAVRRLHSR-NH2,Non-Toxic,–
Ac-DPHRLLQQLVLSGNLIAEAVRRLHSR-NH2,Non-Toxic,–
Ac-DPHALLQQLVLSGNLIKEAVRRLHSR-NH2,Non-Toxic,–
Ac-DPHRLLQQLVLSGNLIKEAVRRLHSA-NH2,Non-Toxic,–
Ac-DPHRLLQQLVLSGNLIKAAVRRLHSR-NH2,Non-Toxic,–
Ac-DPHRLLQQAVLSGNLIKEAVRRLHSR-NH2,Non-Toxic,–
Ac-DPHRLLQQLVLSGNLIKEAARRLHSR-NH2,Non-Toxic,–
Ac-DPHRLAQQLVLSGNLIKEAVRRLHSR-NH2,Non-Toxic,inhibition (BMMC [2]): Active
Ac-DPHRLLQQLVLSGNLIKEAVRRLHSR-NH2,Non-Toxic,inhibition (BMMC [2]): Active
Ac-DPHRLLQQLVLAGNLIKEAVRRLHSR-NH2,Non-Toxic,–
Ac-DPHRLLQQLVLSANLIKEAVRRLHSR-NH2,Non-Toxic,inhibition (BMMC [2]): Active; inhibition (BMMC [3]): Active; inhibition (BMMC [4]): Active
Ac-APHRLLQQLVLSGNLIKEAVRRLHSR-NH2,Non-Toxic,–
Ac-DPHRLLQQLVLSGNLIKEAVRRLHAR-NH2,Non-Toxic,–
Ac-DPHRLLQALVLSGNLIKEAVRRLHSR-NH2,Non-Toxic,–
Ac-DPARLLQQLVLSGNLIKEAVRRLHSR-NH2,Non-Toxic,–
Ac-DPHRLLAQLVLSGNLIKEAVRRLHSR-NH2,Non-Toxic,–
Ac-DPHRLLQQLVLSGNLIKEAVARLHSR-NH2,Non-Toxic,inhibition (BMMC [2]): Active; inhibition (BMMC [3]): Active; inhibition (BMMC [4]): Active
Ac-DPHRLLQQLVLSGNLIKEAVRRAHSR-NH2,Non-Toxic,–
Ac-DPHRLLQQLVLSGNLAKEAVRRLHSR-NH2,Non-Toxic,–
Ac-DPHRLLQQLVLSGNAIKEAVRRLHSR-NH2,Non-Toxic,–
